Measurements as given in ChEMBL document CHEMBL2311401, “Molecular determinants of a selective matrix metalloprotease-12 inhibitor: insights from crystallography and thermodynamic studies” (J Med Chem, 2013).
The source made the active and inactive calls. No cut-off for these calls is given here.

Legend:
[1] = target: T1, Macrophage metalloelastase (Homo sapiens, UniProt P39900); test: Inhibition of human MMP12 catalytic domain (98 to 266) at pH 6.8 by isothermal titration calorimetry
Target sequence in this assay (P39900 whole entry, the tested form may be a part): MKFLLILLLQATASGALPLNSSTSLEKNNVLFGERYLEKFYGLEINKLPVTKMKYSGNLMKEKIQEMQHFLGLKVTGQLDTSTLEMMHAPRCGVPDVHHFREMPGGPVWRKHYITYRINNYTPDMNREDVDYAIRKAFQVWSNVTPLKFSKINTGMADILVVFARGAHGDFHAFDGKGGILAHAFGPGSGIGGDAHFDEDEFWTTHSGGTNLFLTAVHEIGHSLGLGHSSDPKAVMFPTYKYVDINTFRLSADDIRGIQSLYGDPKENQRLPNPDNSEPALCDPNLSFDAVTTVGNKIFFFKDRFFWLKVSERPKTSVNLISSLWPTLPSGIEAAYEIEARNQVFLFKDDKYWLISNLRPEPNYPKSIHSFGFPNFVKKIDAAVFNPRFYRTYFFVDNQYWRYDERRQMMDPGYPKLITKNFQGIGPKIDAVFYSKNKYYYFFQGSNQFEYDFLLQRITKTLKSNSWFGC

[2] = target: T1, Macrophage metalloelastase; test: Inhibition of human MMP12 catalytic domain (98 to 266) at pH 6 to 7 by isothermal titration calorimetry
Target sequence in this assay (P39900 106-470 limits assumed): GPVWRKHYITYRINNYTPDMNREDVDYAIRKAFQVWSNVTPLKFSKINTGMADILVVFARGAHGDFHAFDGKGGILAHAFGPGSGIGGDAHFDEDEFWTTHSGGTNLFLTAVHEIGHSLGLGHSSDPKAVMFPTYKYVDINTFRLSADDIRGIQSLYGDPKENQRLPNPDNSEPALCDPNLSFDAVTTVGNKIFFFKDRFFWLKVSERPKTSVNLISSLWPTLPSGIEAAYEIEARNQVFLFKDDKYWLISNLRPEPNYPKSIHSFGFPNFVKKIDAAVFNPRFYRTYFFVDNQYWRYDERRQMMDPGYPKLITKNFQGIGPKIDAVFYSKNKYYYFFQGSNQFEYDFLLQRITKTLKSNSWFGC

[3] = target: Stromelysin-2 (Homo sapiens) (UniProt P09238); test: Inhibition of human MMP10 using Mca-Pro-Leu-Gly-Leu-Dpa-Ala-Arg-NH2 as substrate by spectrophotometry
[4] = target: Stromelysin-1 (Homo sapiens) (UniProt P08254); test: Inhibition of human MMP3 using Mca-Pro-Leu-Gly-Leu-Dpa-Ala-Arg-NH2 as substrate by spectrophotometry
[5] = target: Matrix metalloproteinase-14 (Homo sapiens) (UniProt P50281); test: Inhibition of human MMP14 using Mca-Pro-Leu-Gly-Leu-Dpa-Ala-Arg-NH2 as substrate by spectrophotometry
[6] = target: Neutrophil collagenase (Homo sapiens) (UniProt P22894); test: Inhibition of human MMP8 catalytic domain (21 to 261) using Mca-Pro-Leu-Gly-Leu-Dpa-Ala-Arg-NH2 as substrate by spectrophotometry
[7] = target: Collagenase 3 (Homo sapiens) (UniProt P45452); test: Inhibition of human MMP13 prodomain (20 to 272) using Mca-Pro-Leu-Gly-Leu-Dpa-Ala-Arg-NH2 as substrate by spectrophotometry
[8] = target: Matrix metalloproteinase-9 (Homo sapiens) (UniProt P14780); test: Inhibition of human MMP9 using Mca-Pro-Leu-Gly-Leu-Dpa-Ala-Arg-NH2 as substrate by spectrophotometry
[9] = target: 72 kDa type IV collagenase (Homo sapiens) (UniProt P08253); test: Inhibition of human MMP2 using Mca-Pro-Leu-Gly-Leu-Dpa-Ala-Arg-NH2 as substrate by spectrophotometry
[10] = target: T1, Macrophage metalloelastase; test: Binding affinity to human MMP12 catalytic domain (98 to 266) by isothermal titration calorimetry
Target sequence in this assay (P39900 whole entry, the tested form may be a part): as the sequence (P39900 whole entry, the tested form may be a part) above

Sequence of Stromelysin-2 (Homo sapiens) (P09238 99-476 limits assumed): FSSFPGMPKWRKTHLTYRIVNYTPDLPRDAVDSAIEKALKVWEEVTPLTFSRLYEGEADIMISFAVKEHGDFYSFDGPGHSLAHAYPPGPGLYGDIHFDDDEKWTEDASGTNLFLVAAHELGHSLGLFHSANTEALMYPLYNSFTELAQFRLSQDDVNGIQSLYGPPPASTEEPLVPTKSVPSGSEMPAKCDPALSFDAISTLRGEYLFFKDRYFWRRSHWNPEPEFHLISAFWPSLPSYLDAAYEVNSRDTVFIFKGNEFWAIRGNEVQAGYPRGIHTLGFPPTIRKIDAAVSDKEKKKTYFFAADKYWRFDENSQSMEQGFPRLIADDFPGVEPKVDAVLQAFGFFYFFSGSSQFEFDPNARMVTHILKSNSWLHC
Sequence of Stromelysin-1 (Homo sapiens) (P08254 100-477 limits assumed): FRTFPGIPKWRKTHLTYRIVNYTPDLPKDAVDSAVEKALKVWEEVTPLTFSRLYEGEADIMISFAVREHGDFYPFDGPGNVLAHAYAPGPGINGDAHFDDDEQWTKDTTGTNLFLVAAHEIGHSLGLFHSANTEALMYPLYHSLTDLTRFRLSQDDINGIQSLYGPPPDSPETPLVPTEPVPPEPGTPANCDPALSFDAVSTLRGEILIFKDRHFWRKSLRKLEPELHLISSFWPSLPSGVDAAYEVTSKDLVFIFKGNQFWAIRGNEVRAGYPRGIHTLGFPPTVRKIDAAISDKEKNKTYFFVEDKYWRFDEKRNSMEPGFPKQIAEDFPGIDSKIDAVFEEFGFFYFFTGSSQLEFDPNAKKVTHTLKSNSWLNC
Sequence of Neutrophil collagenase (Homo sapiens) (P22894 101-467 limits assumed): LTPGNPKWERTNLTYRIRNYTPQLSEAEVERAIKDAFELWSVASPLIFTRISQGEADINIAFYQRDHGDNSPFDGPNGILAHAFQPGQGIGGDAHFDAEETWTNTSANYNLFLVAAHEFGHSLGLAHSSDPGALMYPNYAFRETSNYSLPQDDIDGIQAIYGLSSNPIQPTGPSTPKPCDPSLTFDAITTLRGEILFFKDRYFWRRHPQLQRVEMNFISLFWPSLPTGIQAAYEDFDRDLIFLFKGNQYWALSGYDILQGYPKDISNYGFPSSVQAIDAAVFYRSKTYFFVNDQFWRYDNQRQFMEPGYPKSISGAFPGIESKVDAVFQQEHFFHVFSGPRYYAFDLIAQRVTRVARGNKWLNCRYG
Sequence of Matrix metalloproteinase-9 (Homo sapiens) (P14780 whole entry): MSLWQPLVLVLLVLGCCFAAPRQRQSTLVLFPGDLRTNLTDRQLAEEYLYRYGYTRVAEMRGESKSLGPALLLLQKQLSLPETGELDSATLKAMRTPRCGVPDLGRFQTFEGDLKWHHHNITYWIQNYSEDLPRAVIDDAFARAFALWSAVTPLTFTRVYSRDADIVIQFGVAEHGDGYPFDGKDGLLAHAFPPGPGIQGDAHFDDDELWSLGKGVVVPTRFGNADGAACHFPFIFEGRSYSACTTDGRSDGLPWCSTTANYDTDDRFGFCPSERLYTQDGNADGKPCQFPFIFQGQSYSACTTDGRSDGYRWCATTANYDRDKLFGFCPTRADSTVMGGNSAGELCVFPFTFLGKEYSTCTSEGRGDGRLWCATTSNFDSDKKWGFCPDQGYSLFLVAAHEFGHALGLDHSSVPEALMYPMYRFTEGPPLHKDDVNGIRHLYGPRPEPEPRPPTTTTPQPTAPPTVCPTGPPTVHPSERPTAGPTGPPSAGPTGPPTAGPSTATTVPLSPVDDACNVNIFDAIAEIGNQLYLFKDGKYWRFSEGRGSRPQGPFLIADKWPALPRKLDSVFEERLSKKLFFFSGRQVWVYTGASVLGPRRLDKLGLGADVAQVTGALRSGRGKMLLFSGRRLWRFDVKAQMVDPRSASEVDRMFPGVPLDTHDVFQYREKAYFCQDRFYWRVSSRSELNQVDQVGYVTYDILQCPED
Sequence of 72 kDa type IV collagenase (Homo sapiens) (P08253 110-660 limits assumed): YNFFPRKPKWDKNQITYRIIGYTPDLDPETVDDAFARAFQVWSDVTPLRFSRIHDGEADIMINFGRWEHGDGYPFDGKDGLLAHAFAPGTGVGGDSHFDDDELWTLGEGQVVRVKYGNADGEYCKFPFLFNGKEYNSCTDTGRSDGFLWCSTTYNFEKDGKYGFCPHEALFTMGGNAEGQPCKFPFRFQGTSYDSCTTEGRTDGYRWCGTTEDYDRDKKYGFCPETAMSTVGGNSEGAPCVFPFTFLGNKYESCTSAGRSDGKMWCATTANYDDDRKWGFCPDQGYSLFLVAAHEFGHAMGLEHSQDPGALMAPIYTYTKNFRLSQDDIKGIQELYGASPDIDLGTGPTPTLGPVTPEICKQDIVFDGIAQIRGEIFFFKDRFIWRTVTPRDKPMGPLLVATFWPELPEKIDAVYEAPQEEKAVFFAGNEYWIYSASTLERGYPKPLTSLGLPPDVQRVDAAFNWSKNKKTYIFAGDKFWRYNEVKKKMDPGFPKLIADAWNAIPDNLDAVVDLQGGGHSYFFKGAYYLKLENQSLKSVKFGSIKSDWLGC

inhibition [3]	inhibition [4]	inhibition [5]	inhibition [6]	inhibition [7]	inhibition [8]	inhibition [9]	Ki [10]	inhibition [2]	SMILES	Ki [1]	INH [2]
Active	Active	Active	Active	Active	Active	Active	15.5 nM	–	NC(=O)[C@H](CCC(=O)O)NC(=O)[C@H](CCC(=O)O)NC(=O)[C@H](Cc1cc(-c2ccccc2)no1)CP(=O)(O)c1ccc(Br)cc1	–	–
Active	Active	–	–	–	–	–	14.7 nM	Active	C[C@H](NC(=O)[C@H](C)NC(=O)[C@H](Cc1cc(-c2ccccc2)no1)CP(=O)(O)c1ccc(Br)cc1)C(N)=O	–	–
Active	inactive	inactive	inactive	inactive	Active	Active	0.28 nM	–	C[C@H](NC(=O)[C@H](C)NC(=O)[C@H](Cc1cc(-c2ccc(-c3cccc(Cl)c3)cc2)no1)CP(=O)(O)c1ccc(Br)cc1)C(N)=O	–	–

SMILES	inhibition [3]	inhibition [4]	inhibition [5]	inhibition [6]	inhibition [7]	inhibition [8]	inhibition [9]	Ki [10]	inhibition [2]	Ki [1]	INH [2]
NC(=O)[C@H](CCC(=O)O)NC(=O)[C@H](CCC(=O)O)NC(=O)[C@H](Cc1cc(-c2ccc(-c3cccc(Cl)c3)cc2)no1)CP(=O)(O)c1ccc(Br)cc1	Active	Active	–	–	–	–	–	–	–	0.24 nM	0.044 nM
